Reference: ChEMBL document CHEMBL1201862, “PubChem BioAssay data set” (2004)
Blank lines part the entries; values can stand above or below the compound they belong to. Calls of active or inactive are those of the source.

What was measured:
[1] = target: T1, Tyrosine-protein phosphatase non-receptor type 7 (Homo sapiens, UniProt P35236); format: functional
T1 sequence (P35236 whole entry): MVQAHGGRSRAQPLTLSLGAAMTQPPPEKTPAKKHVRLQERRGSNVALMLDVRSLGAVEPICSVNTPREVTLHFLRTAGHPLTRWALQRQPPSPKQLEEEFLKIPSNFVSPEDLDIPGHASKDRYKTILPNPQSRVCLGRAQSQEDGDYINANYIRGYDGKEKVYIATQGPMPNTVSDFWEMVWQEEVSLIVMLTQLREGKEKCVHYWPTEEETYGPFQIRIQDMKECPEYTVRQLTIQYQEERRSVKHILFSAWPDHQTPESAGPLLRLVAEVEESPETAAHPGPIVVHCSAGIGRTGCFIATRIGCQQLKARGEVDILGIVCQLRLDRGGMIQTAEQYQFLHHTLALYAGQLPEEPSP

[2] = target: T2, Tyrosine-protein phosphatase non-receptor type 22 (Homo sapiens, UniProt Q9Y2R2); experiment: PubChem AID 2135
T2 sequence (Q9Y2R2 whole entry): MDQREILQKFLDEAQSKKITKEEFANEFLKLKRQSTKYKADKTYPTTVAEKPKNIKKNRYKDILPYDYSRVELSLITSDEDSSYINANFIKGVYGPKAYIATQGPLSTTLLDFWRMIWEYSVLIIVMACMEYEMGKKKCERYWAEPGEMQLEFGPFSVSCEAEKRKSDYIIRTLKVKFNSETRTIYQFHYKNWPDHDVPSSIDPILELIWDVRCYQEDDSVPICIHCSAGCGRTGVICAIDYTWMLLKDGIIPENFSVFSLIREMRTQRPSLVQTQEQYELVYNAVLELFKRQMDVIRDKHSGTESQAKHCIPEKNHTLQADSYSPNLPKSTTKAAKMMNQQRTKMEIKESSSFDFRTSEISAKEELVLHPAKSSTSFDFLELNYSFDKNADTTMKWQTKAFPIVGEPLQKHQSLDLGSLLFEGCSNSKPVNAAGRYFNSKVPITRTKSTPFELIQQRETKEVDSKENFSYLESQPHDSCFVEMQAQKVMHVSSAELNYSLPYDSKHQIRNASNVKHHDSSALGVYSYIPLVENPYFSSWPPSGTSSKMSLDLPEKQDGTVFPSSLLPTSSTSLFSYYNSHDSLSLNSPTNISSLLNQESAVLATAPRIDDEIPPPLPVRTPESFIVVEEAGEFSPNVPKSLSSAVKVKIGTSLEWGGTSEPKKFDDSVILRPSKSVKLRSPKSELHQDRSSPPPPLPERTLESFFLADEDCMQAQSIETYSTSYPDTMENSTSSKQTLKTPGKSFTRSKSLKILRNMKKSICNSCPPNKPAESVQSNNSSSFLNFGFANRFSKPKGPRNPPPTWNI

[3] = target: T2, Tyrosine-protein phosphatase non-receptor type 22; experiment: PubChem AID 2140
[4] = target: T1, Tyrosine-protein phosphatase non-receptor type 7; experiment: HTS HePTP Fluorescent Assay using OMFP substrate for In Vitro dose response studies. [Related pubchem assays (depositor defined):AID1059, AID1077, AID1784, AID2068, AID2085, AID435032, AID521]; format: functional
[5] = target: Tyrosine-protein phosphatase non-receptor type 12 (Homo sapiens, UniProt Q05209); experiment: SAR Selectivity Analysis of small molecule inhibitors of PEST using pCAP in a fluorescence assay. [Related pubchem assays (depositor defined):AID1779, AID1784, AID2135]; format: functional
[6] = target: T3, RNA-binding protein pos-1 (Caenorhabditis elegans, UniProt G5EF15); experiment: disruptors of C. elegans POS-1 RNA interaction – biochemical, fluorescence polarization, dose response (AID 1964);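 also: purified POS-1 fused to maltose binding protein made in E. coli; potency of compounds blocking POS-1 binding to fluorescent RNA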
T3 sequence (G5EF15 whole entry): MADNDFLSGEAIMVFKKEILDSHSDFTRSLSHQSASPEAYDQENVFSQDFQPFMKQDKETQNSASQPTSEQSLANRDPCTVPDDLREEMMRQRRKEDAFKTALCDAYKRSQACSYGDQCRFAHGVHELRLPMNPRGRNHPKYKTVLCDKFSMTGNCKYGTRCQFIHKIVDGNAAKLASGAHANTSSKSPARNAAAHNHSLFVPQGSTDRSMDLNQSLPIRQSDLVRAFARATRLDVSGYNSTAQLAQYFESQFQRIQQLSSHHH

[7] = target: T2, Tyrosine-protein phosphatase non-receptor type 22; format: functional
[8] = target: T1, Tyrosine-protein phosphatase non-receptor type 7; experiment: inhibition of hematopoietic tyrosine phosphatase HePTP – biochemical, set 2, SAR follow-up (AID 449736); format: functional
[9] = target: T2, Tyrosine-protein phosphatase non-receptor type 22; experiment: SAR LYP1 Fluorescent Assay using OMFP substrate for In Vitro dose response studies - Set 2. [Related pubchem assays (depositor defined):AID1779, AID1784, AID2140, AID449726, AID488869]; format: functional
[10] = target: T2, Tyrosine-protein phosphatase non-receptor type 22; experiment: LYP1 Fluorescent Assay using OMFP substrate for In Vitro dose response studies. [Related pubchem assays (depositor defined):AID1779, AID1784, AID435024]
[11] = CCR5-tropic HIV-1 fusion blockers – cell-based, CCR5-tropic Env, dose response (AID 2279); format: functional
[12] = target: T4, Zinc finger protein mex-5 (Caenorhabditis elegans, UniProt Q9XUB2); experiment: potency of MEX-5 RNA-binding blockers – biochemical, C. elegans, fluorescence polarization, dose response (AID 1960)
T4 sequence (Q9XUB2 whole entry): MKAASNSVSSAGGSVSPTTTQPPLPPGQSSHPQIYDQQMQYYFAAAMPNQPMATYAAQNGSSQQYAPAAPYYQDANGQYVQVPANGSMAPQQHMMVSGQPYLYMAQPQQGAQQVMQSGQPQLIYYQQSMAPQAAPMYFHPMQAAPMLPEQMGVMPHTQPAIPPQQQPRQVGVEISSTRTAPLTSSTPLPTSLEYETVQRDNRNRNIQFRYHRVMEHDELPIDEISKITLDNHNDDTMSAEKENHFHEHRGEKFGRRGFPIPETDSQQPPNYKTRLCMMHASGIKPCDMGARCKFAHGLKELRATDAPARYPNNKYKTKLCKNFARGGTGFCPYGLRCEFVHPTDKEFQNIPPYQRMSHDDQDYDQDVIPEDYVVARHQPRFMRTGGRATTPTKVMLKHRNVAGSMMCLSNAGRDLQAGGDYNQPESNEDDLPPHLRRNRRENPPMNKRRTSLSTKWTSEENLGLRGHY

Prothrombin = Prothrombin (Bos taurus, UniProt P00735); experiment: thrombin protease inhibitors – biochemical, fluorescence polarization, uHTS hits, dose response (AID 602369); format: functional
[13] = target: 26S proteasome non-ATPase regulatory subunit 14 (Homo sapiens, UniProt O00487); experiment: inhibition of proteasome subunit RPN11 – biochemical, fluorescence polarization, uHTS hits, confirmation (AID 602368); format: functional
26S proteasome non-ATPase regulatory subunit 14, sequence (O00487 whole entry): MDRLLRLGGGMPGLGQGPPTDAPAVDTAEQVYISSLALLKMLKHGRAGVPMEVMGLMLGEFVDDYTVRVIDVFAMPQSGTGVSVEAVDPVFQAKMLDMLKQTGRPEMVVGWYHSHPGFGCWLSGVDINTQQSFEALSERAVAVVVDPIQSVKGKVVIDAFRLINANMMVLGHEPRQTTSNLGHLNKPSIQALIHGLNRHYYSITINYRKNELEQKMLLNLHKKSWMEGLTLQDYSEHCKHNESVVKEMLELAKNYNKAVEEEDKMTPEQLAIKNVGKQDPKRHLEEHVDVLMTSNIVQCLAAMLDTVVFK

[14] = target: T2, Tyrosine-protein phosphatase non-receptor type 22; experiment: PTPN22 lymphoid phosphatase activity blockers – biochemical, fluorescence intensity, uHTS (AID 1779)
[15] = target: T2, Tyrosine-protein phosphatase non-receptor type 22; experiment: SAR LYP1 Fluorescent Assay using pCAP substrate for In Vitro dose response studies - Set 2. [Related pubchem assays (depositor defined):AID1779, AID1784, AID2135, AID449727]; format: functional
[16] = target: Envelope glycoprotein gp160 (Human immunodeficiency virus 1, UniProt Q6QLK5); experiment: cell-free HIV fusion peptide-binding blockers – biochemical, uHTS, fluorescence dequenching, […] (AID 1986)
[17] = target: T2, Tyrosine-protein phosphatase non-receptor type 22; experiment: SAR LYP1 Fluorescent Assay using OMFP substrate for In Vitro dose response studies - Set 3. [Related pubchem assays (depositor defined):AID1779, AID1784, AID2140, AID2686]; format: functional
[18] = target: 72 kDa type IV collagenase (Homo sapiens, UniProt P08253); experiment: Dose Response validation of uHTS RPN11 inhibitor hits using a MMP-2 Fluorescence assay.; format: functional
72 kDa type IV collagenase, sequence (P08253 whole entry): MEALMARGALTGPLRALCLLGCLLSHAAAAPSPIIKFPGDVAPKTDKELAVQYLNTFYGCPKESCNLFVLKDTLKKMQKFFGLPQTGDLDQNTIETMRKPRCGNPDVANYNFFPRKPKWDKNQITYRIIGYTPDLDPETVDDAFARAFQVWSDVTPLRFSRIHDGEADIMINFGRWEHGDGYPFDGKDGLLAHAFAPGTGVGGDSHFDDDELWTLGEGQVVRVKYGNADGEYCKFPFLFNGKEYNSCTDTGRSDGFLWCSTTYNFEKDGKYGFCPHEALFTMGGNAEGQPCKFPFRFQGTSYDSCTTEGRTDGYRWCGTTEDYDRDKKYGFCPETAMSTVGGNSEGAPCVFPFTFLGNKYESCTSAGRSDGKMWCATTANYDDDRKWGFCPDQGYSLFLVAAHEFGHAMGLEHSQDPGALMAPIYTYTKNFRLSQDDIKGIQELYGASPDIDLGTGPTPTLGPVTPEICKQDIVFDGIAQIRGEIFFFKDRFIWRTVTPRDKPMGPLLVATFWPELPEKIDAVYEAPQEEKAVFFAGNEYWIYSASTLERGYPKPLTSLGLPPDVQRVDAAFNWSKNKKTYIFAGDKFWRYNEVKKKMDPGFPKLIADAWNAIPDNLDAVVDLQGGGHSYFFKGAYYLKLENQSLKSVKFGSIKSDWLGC

[19] = Counterscreen for AddAB inhibitors: absorbance-based bacterial cell-based high throughput dose response assay for inhibitors of bacterial viability. [Related pubchem assays (depositor defined):AID435030, AID449728, AID449731, AID488942, AID488955, AID488956]; format: functional
Exodeoxyribonuclease V = Exodeoxyribonuclease V (Escherichia coli (strain K12), UniProt P04993+P07648+P08394); experiment: RecBCD inhibition via phage-restricted bacterial growth – absorbance, V66 E. coli, mutant T4 phage, counter-screen for AddAB inhibitor project, dose response (AID 492957); format: functional, cell-based, Escherichia coli str. K-12 substr. MG1655
Exodeoxyribonuclease V, sequence (P04993 whole entry): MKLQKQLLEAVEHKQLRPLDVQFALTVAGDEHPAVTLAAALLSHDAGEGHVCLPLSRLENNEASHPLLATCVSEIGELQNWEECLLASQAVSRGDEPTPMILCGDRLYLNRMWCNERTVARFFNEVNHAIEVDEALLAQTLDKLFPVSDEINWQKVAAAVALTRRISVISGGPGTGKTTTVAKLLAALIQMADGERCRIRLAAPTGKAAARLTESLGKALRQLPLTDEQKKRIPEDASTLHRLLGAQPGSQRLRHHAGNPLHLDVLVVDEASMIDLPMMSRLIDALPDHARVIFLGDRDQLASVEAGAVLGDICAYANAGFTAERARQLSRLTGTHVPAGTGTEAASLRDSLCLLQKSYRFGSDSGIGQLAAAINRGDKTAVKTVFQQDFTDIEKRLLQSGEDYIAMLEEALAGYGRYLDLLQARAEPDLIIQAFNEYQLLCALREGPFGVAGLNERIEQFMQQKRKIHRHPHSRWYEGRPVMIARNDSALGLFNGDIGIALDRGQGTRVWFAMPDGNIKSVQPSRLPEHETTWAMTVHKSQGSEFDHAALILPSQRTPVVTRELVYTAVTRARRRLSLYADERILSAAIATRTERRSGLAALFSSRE
Exodeoxyribonuclease V, sequence (P07648 whole entry): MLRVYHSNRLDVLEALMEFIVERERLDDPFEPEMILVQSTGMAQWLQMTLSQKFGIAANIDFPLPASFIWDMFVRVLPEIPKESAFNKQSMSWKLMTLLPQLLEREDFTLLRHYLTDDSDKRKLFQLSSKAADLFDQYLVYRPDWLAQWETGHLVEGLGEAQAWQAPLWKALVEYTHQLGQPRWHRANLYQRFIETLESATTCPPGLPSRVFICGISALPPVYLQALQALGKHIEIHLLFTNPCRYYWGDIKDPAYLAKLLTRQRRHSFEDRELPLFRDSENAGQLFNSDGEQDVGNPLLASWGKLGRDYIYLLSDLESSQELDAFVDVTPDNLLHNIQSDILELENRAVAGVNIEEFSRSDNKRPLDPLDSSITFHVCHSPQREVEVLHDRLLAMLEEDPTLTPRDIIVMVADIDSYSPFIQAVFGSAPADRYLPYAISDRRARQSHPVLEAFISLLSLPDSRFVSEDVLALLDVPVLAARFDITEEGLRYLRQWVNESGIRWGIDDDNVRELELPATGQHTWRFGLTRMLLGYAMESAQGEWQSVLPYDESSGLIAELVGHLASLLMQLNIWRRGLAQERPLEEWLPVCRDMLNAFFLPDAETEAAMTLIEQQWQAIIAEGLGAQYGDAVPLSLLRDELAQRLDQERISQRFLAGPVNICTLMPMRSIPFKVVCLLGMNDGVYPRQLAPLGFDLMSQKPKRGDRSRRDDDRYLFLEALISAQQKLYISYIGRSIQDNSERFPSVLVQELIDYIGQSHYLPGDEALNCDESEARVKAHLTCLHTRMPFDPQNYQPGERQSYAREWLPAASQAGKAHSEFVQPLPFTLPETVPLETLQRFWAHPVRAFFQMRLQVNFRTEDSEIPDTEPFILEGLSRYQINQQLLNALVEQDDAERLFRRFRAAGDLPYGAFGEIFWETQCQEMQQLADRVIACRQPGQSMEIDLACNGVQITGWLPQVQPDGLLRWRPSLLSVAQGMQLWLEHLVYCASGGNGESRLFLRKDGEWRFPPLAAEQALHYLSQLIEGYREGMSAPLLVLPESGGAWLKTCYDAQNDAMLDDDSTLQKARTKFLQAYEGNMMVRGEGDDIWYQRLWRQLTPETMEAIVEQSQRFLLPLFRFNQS
Exodeoxyribonuclease V, sequence (P08394 whole entry): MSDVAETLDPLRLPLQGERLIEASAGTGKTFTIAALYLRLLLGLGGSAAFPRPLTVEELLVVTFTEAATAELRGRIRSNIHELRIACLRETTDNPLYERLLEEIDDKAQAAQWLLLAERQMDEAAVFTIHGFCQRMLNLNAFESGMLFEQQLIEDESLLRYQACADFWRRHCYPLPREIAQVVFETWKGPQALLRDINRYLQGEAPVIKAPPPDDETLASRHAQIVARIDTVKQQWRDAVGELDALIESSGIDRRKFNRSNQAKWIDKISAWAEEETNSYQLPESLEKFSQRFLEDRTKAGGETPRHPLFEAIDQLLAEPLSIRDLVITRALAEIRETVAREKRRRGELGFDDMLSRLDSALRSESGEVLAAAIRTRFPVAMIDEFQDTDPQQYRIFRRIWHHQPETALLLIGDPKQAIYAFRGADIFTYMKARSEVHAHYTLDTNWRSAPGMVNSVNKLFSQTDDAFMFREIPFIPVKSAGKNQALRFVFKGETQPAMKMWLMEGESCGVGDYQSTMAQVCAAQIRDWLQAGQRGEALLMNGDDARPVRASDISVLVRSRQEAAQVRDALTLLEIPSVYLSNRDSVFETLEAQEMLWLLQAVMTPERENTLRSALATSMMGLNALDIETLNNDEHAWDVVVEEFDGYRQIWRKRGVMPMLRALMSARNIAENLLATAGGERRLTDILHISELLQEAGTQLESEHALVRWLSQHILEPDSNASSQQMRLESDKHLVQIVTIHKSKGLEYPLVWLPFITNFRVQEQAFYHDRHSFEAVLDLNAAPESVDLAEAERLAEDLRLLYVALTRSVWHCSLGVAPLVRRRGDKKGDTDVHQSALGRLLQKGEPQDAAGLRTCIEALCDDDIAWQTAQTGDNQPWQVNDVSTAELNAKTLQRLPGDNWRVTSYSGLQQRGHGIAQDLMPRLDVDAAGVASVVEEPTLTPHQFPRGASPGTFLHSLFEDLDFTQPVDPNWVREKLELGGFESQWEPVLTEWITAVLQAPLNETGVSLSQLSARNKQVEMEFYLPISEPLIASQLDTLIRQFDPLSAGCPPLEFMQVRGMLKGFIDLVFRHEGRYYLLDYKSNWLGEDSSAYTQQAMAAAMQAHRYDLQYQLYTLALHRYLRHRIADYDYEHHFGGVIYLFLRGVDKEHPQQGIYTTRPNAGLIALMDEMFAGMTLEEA

[20] = target: T5, Mannose-6-phosphate isomerase (Homo sapiens, UniProt P34949); experiment: phosphomannose isomerase inhibition – biochemical, fluorescence intensity, confirmation (AID 1535)
T5 sequence (P34949 whole entry): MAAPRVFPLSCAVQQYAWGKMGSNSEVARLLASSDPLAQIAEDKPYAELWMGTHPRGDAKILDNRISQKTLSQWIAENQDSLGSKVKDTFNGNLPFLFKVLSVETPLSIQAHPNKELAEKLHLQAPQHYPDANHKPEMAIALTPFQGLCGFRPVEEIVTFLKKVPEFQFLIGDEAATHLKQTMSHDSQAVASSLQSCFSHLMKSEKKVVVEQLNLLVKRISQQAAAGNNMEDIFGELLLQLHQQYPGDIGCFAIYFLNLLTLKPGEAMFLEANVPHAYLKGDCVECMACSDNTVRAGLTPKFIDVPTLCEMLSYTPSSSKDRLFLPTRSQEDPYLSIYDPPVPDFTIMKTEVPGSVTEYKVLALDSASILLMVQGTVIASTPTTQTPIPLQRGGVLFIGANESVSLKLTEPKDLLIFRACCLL

Phosphomannomutase 2 = Phosphomannomutase 2 (Homo sapiens, UniProt O15305); experiment: Counter screen SAR assay for PMM2 inhibitors via a fluorescence intensity assay. [Related pubchem assays (depositor defined):AID1545, AID1574]
[21] = target: T6, Kappa-type opioid receptor (Homo sapiens, UniProt P41145); experiment: SAR analysis of small molecule agonists of the kappa opioid receptor via a luminescent beta-arrestin assay - Set 3. [Related pubchem assays (depositor defined):AID1777, AID1785, AID1786, AID1966, AID2133, AID2136, AID2284, AID2500]; format: functional
T6 sequence (P41145 whole entry): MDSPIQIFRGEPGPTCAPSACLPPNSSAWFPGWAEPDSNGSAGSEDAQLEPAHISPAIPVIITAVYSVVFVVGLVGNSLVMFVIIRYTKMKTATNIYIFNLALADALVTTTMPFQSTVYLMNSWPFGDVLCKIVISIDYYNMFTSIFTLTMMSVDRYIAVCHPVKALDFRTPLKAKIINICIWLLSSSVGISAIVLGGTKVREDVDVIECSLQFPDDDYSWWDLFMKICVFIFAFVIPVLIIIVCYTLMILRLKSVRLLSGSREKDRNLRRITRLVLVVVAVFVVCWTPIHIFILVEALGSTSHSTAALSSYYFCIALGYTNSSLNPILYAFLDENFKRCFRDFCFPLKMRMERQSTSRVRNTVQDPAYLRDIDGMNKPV

[22] = target: T7, Delta-type opioid receptor (Homo sapiens, UniProt P41143); experiment: DOR agonists, SAR follow-up, image-based (AID 2370); format: functional
T7 sequence (P41143 whole entry): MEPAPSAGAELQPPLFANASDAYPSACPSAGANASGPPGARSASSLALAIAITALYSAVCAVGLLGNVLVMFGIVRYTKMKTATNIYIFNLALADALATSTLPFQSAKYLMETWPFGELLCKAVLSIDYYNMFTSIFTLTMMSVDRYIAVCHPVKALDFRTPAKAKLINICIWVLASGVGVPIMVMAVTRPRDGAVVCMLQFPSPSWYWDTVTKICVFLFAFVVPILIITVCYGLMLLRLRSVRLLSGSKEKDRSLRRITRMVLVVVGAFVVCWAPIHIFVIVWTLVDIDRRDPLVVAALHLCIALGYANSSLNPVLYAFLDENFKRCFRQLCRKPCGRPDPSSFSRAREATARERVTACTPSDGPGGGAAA

Mu-type opioid receptor [23] = target: T8, Mu-type opioid receptor (Homo sapiens, UniProt P35372); experiment: mu opioid receptor activators, image-based, SAR follow-up (AID 2352); format: functional
T8 sequence (P35372 whole entry): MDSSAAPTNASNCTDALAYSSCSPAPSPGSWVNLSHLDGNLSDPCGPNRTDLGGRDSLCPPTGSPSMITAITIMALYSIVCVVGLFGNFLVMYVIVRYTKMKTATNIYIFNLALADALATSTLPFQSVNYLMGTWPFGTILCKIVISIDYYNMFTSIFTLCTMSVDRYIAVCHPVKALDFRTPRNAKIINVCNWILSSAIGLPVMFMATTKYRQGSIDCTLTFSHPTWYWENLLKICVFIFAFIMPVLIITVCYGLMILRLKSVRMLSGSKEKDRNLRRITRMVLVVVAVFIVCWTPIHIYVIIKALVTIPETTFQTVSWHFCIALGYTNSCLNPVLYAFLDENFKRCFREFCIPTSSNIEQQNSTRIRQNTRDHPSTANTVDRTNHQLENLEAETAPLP

Mu-type opioid receptor [24] = target: T8, Mu-type opioid receptor; experiment: mu opioid receptor blockers – image-based, SAR follow-up (AID 2420); format: functional;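 also: compounds added before stimulation of receptor with agonist DAMGO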
[25] = target: T6, Kappa-type opioid receptor; experiment: kappa opioid receptor activation potency – imaging, image-based, SAR follow-up (AID 2359); format: functional
[26] = target: T7, Delta-type opioid receptor; experiment: delta opioid receptor blockers – image-based, SAR follow-up (AID 2357); format: functional
[27] = target: T6, Kappa-type opioid receptor; experiment: SAR analysis of small molecule agonists of the kappa opioid receptor via a luminescent beta-arrestin assay. [Related pubchem assays (depositor defined):AID1777, AID1786, AID1966, AID2133, AID2136, AID2348, AID2352, AID2357, AID2359, AID2370, AID2420, AID2478, AID2491, AID2492, AID2493, AID2497, AID2498, AID2500, AID449737, AID488822, AID488842]; format: functional
[28] = target: T6, Kappa-type opioid receptor; experiment: kappa opioid receptor blockers, image-based, SAR follow-up (AID 2348); format: functional
Tumor necrosis factor = Tumor necrosis factor (Homo sapiens, UniProt P01375); experiment: analog potency on TNFa NF-kB signaling – cell-based, revised, SAR follow-up (AID 2337); format: functional
[29] = target: Nucleotide-binding oligomerization domain-containing protein 1 (Homo sapiens, UniProt Q9Y239); experiment: blockers of NOD1 pathway activity – revised, SAR follow-up (AID 2333); format: functional
HEK293 = experiment: cells; conditions: Homo sapiens;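 also: cells exposed to compound for 14 hours overnight before viability readout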
[30] = target: Nucleotide-binding oligomerization domain-containing protein 2 (Homo sapiens, UniProt Q9HC29); experiment: PubChem AID 2334; format: functional

Compound: O=C(O)CCCN1C(=O)/C(=C/c2ccc(-c3nc4ccccc4s3)o2)SC1=S
IC50 [1]: 11.5 µM (active)
IC50 [2]: 3.69 µM (active)
IC50 [3]: 16 µM (active)
IC50 [4]: 24.6 µM (active)
IC50 [5]: 1.63 µM (active)
EC50 [6]: 3.39 µM (active)
IC50 [7]: 4.77 µM (active)
IC50 [8]: 0.608 µM (active)
IC50 [9]: 3.92 µM (active)
IC50 [10]: 6.14 µM (active)
IC50 [11]: 4.43 µM (active)
EC50 [12]: 20.4 µM (active)
IC50 (Prothrombin): 34.5 µM (active)
IC50 [13]: 5.26 µM (active)
IC50 [14]: 7.71 µM (active)
IC50 [15]: 3.1 µM (active)
IC50 [16]: 11.7 µM (active)
IC50 [17]: 11.2 µM (active)
IC50 [18]: > 100 µM (inactive)

Compound: Cc1cccnc1NC(=O)c1ccc([N+](=O)[O-])o1
IC50 [19]: 29.9 µM (inactive)
IC50 (Exodeoxyribonuclease V): > 119 µM (inactive)

IC50 [20]: > 50 µM (inactive)
IC50 (Phosphomannomutase 2): > 100 µM (inactive)
Compound: CCOc1ccc(-c2nnc(S)o2)cc1

EC50 [21]: > 20 µM (inactive)
Compound: c1ccc(CSc2nnc(-c3ccccn3)n2Cc2ccccc2)cc1

EC50 [22]: > 32 µM (inactive)
EC50 (Mu-type opioid receptor [23]): > 32 µM (inactive)
IC50 (Mu-type opioid receptor [24]): > 32 µM (inactive)
EC50 [25]: > 32 µM (inactive)
IC50 [26]: > 32 µM (inactive)
EC50 [27]: > 10 µM (inactive)
IC50 [28]: > 32 µM (inactive)
Compound: Cc1ccc2[nH]c(=O)c(CN(C)C(=O)c3ccccn3)cc2c1

Compound: O=C(Nc1nc2ccccc2n1Cc1ccccc1Cl)C1CCCCC1
IC50 (Tumor necrosis factor): > 20 µM (inactive)
IC50 [29]: > 20 µM (inactive)
IC50 (HEK293): > 20 µM (inactive)
IC50 [30]: > 20 µM (inactive)
